Patent publication US20250064773A1, “TARGETING ERO1 ALPHA WITH AURONE DERIVATIVES” (West Virginia University Board of Governors on behalf of …, priority 2021, published 2025)
“Also recorded” adds a separate entry of the source.

Tested on: PC-9 cells
Assay: Soft agar clonogenic assay, PC-9
Format: cell-based
Conditions: 14 days, 3.75-15 μM
Protocol: We utilized an MTT assay to determine the potency of the compounds for inhibiting cell growth. […] We next asked whether T151742 induced inhibition of cell growth was dependent on ERO1α expression. As shown in FIG. 6C two ERO1α deleted clones in the PC-9 cell line were isolated. Using an MTT assay to determine overall cellar viability, a non-targeted control (scramble), and both ERO1α knockout clones was subjected to treatment with T151742 for 72 hours (See FIG. 6D). […] Though only slight differences were observed between T151742 and EN-460 we tested the effects of these compounds in a clonogenic assay which is a better test for inhibition of self-renewal.
FIG. 7A and FIG. 7B show 1000 cells/well were plated in a 12-well plate in triplicate with either 0.5% DMSO, T151742, or EN-460 and allowed to form colonies for 14 days. Colonies were subsequently stained with 0.01% Crystal Violet, imaged, and quantified using ImageJ. […] Colonies were stained with 0.01% Crystal Violet, imaged, and quantified using ImageJ.
Cell Lines: PC-9 cell line used was obtained from Sigma Aldrich and grown in RPMI 1640 medium with 10% fetal bovine serum and 1% penicillin/streptomycin. […] Plate was then read on the BioTek Cytation 5 at 530/590 nm. […] Plate was then read at 570 nm. […] Images were then quantified using ImageJ. […]

CN(C)c1ccc(/C=C2\Oc3cc(O)ccc3C2=O)cc1 [Compound T151742]
activity in clonogenicity assay (colony number): retained activity; also recorded: significantly more potent at reducing colony number
